{"source": "patent US7635692B2", "about": "“Composition for the prevention of osteoporosis comprising a combination of isoflavones and polyunsaturated fatty acids” (DSM IP Assets B.V., priority 2001, dated 2009)", "key": {"[1]": {"tested_on": "ovariectomized rat osteoporosis (OVX) model", "assay": "Bone mineral density (BMD) of femur by DXA in the OVX rat model", "assay_type": "in vivo", "details": "OVX rats", "excerpt": "In the following experimental section dual-energy X-ray absorptiometry (DXA) was used to measure bone mineral density.\nIn the experimental set up data were elaborated using the ovariectomized rat osteoporosis (OVX) model. This model mimics the estrogen deficient status as found in postmenopausal women or poststerilized female pets leading to osteoporosis. The SHAM group with intact ovaries served as control. Each test group consisted of 10-12 animals. The feed used was free of isoflavones, such as, for example, genistein. […] The administration of vitamin K1, in an amount of 20 μg/kg feed corresponds to a daily dosage of about 1 μg/kg BW, the estimated daily requirement of vitamin K1. The amount of vitamin D3 was 500 IU/kg feed which corresponds to a daily dosage of 25 IU/kg BW, the estimated daily requirement. For fortification, PUFA (5% of ROPUPA “30” n-3 Food Oil) was added to the feed corresponding to a PUPA fortification of % in feed as given in Table 1. Bone mineral density, osteocalcin, and deoxypyridinolin have been measured 84 days post intervention.\nBone mineral density (BMD) measurement in the femur of OVX rats: […]"}, "[2]": {"tested_on": "ovariectomized rat osteoporosis (OVX) model", "assay": "Serum osteocalcin (bone formation marker) in OVX rats", "assay_type": "in vivo", "method": "Osteocalcin, a biochemical marker for bone formation, is a bone-specific protein secreted primarily in osteoblasts, i.e. the bone forming cells. Serum osteocalcin was measured as marker for bone formation.\n(§1) In the experimental set up data were elaborated using the ovariectomized rat osteoporosis (OVX) model. This model mimics the estrogen deficient status as found in postmenopausal women or poststerilized female pets leading to osteoporosis. The SHAM group with intact ovaries served as control. Each test group consisted of 10-12 animals. The feed used was free of isoflavones, such as, for example, genistein. The test compounds in various combinations as given in Table 1 have been administered by feed admix. […] The administration of vitamin K1, in an amount of 20 μg/kg feed corresponds to a daily dosage of about 1 μg/kg BW, the estimated daily requirement of vitamin K1. The amount of vitamin D3 was 500 IU/kg feed which corresponds to a daily dosage of 25 IU/kg BW, the estimated daily requirement. For fortification, PUFA (5% of ROPUPA “30” n-3 Food Oil) was added to the feed corresponding to a PUPA fortification of % in feed as given in Table 1. Bone mineral density, osteocalcin, and deoxypyridinolin have been measured 84 days post intervention.\nSerum Osteocalcin (bone formation marker) measurement in OVX rats: […]"}, "[3]": {"tested_on": "ovariectomized rat osteoporosis (OVX) model", "assay": "Deoxypyridinoline excretion (bone resorption marker) in OVX rats", "assay_type": "in vivo", "method": "Deoxypyridinoline (DPD) crosslinks excretion provides a highly specific marker for bone resorption. DPD crosslinks excretion was measured as a marker for bone resorption. The values have to be corrected for urinary concentration by creatinine measurement as it is known in the art.\nas §1\nDeoxypyridinoline (bone resorption marker) measurement in OVX rats: […]"}, "[4]": {"assay": "Plasma genistein level in rats after feed admix", "assay_type": "in vivo, rat", "details": "genistein 15 mg/kg BW per day, comparable to Japanese people on a traditional diet", "excerpt": "as §1"}, "[5]": {"details": "84 days post intervention, compared with the other groups"}}, "data": [{"smiles": "O=c1c(-c2ccc(O)cc2)coc2cc(O)cc(O)c12", "note": "[Genistein, 4′,5,7-trihydroxy-isoflavone]", "values": [{"measurement": "Effect on BMD (in words)", "setting": "[1]; [5]", "result": "improved BMD to control values"}, {"measurement": "Bone mineral density of femur, Mean", "setting": "[1]; feed admix, day 84 postintervention, DXA", "result": 0.143, "unit": "g/cm^2"}, {"measurement": "Effect on serum osteocalcin levels (in words)", "setting": "[2]; [5]", "result": "reduced osteocalcin levels to control values"}, {"measurement": "Serum osteocalcin, Mean serum conc.", "setting": "[2]; feed admix, day 84 postintervention", "result": 14.6, "unit": "ng/mL"}, {"measurement": "Effect on DPD excretion (in words)", "setting": "[3]; [5]", "result": "restores DPD excretion to values of the control group"}, {"measurement": "Deoxypyridinoline excretion, Mean", "setting": "[3]; feed admix, day 84 postintervention, corrected by creatinine", "result": 220.5, "unit": "nmol DPD/mmol Creatinine"}, {"measurement": "plasma genistein level", "setting": "[4]", "result": "~280", "unit": "nM"}]}]}
